EC50, Ki and IC50 data for 2 molecules are collected here from patent US20070179175A1, “Tetrahydronaphthyridine Derivative” (priority 2005, published 2007).

SMILES strings stand for the structures.

The target in assay [1] is T1, human histamine H3 receptor (Homo sapiens, UniProt Q9Y5N1).
T1 construct: expressed in transfected cells; host or cells: HEK-293 cells expressing a CRE beta-lactamase reporter gene
The assay can be described thus: H3 cell based functional assay (cAMP, β-lactamase reporter gene). How it is done: The compound was evaluated using a cell based functional assay measuring cAMP through β-lactamase reporter gene activity. A stable cell line was generated from HEK-293 cells expressing a CRE β-lactamase reporter gene and transfected with human histamine H3 receptor cDNA. Cells were seeded at a density of 500,000 cells/ml, and grown overnight in MEM (Invitrogen) supplemented with 1% dialysed FBS (Sigma), 2 mM glutamine (Sigma), 1 mM sodium pyruvate (Sigma), 0.1 mM non essential amino acids (Invitrogen) and 25 mM HEPES (Sigma) in poly D lysine coated 384 well plates (BD Biosciences). […] For IC50 determination, the test compound was prepared in PBS (Sigma) and DMSO (Sigma) at a dose response of 5×10^−10 to 5×10^−5 M with a final DMSO concentration in the assay of 0.5%. Cells were incubated for 15 minutes plus/minus compound and their ability to permit 10 μM forskolin-stimulated cAMP synthesis in the presence of 1 nM imetit was measured as described above.

The next assay has as its target T2, hERG channel (Homo sapiens, UniProt Q12809).
T2 construct: expressed in transfected cells
Nature of the assay: hERG patch clamp assay. Format: cell-based. The following applies: HEK293 cells stably expressing hERG; whole-cell patch clamp, 26.5-28.5° C. On the procedure: To determine the potential of compounds to inhibit the hERG channel, the cloned counterpart of the […] delayed rectifier potassium current (IKr), HEK293 cells stably expressing the hERG channel were used in whole-cell patch clamp electrophysiology studies at ambient temperature (26.5-28.5° C.). The methodology for stable transfection of this channel in HEK293 cells can be found elsewhere (Zhou et al 1998, Biophysical Journal, 74, pp 230-241). The solutions used for experimentation were standard extracellular solution of the following composition (mM); NaCl, 137; KCl, 4; CaCl2, 1.8; MgCl2, 1; Glucose, 10; HEPES, 10; pH 7.4±0.05 with NaOH/HCl; and standard intracellular solution of the following composition (mM); KCl 130; MgCl2, 1; HEPES, 10; EGTA, 5; MgATP, 5; pH 7.2±0.05 with KOH. The voltage protocol applied was designed to activate the hERG channel and allow the measurement of drug block of the channel and is as follows. First the membrane potential was stepped from a holding potential of −80 mV to +30 mV for 1s. This was followed by a descending voltage ramp at a rate of 0.5 mV/ms back to holding potential of −80 mV and the peak outward current observed during the repolarizing ramp was measured. This protocol was evoked repeatedly every 4 seconds (0.25 Hz). […]
A general note: hERG is a cardiac potassium channel; its block is linked to QT prolongation.

T1 sequence (Q9Y5N1 whole entry): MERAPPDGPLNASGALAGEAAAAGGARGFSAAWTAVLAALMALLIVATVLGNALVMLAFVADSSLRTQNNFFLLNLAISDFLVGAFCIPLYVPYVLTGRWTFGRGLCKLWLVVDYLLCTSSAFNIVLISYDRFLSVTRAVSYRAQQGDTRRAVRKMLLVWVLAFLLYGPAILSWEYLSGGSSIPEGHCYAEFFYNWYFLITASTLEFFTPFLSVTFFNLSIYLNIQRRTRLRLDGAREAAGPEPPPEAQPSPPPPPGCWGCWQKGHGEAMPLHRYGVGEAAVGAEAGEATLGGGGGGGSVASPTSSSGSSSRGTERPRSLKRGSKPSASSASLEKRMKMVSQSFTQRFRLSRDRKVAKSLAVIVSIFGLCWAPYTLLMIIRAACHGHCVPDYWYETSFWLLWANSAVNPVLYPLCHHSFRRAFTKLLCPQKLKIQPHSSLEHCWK
T2 sequence (Q12809 whole entry): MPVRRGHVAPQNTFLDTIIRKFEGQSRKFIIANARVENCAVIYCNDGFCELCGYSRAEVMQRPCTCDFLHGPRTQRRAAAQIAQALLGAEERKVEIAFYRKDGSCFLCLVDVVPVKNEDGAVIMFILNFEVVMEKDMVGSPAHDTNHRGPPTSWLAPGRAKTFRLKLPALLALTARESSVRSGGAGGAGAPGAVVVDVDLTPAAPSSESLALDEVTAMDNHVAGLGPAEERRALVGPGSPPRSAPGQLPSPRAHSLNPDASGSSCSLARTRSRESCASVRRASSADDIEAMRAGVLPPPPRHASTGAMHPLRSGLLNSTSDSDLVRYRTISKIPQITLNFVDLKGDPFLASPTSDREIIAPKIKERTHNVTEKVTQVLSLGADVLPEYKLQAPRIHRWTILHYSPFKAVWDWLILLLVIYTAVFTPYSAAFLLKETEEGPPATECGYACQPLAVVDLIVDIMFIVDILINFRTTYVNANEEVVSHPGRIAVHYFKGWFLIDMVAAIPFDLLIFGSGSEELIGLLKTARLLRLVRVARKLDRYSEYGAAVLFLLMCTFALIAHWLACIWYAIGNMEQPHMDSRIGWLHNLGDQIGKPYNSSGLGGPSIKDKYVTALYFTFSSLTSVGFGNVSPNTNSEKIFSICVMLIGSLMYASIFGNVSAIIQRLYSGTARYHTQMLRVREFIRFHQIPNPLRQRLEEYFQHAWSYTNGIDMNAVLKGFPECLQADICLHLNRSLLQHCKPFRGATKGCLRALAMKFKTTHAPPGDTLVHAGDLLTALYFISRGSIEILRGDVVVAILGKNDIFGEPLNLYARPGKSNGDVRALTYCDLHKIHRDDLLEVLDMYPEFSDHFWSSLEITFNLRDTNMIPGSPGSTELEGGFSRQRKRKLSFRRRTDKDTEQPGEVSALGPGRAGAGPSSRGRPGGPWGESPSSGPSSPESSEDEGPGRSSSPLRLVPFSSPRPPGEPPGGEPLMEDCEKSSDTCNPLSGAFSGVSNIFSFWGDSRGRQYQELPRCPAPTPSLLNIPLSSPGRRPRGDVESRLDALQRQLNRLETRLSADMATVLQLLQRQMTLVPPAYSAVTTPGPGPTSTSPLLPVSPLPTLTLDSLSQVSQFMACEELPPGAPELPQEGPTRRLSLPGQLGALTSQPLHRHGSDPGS

As usually defined, the EC50 is the concentration at which the effect is half-maximal. A high value points to a less potent agent. In assay [1], `N=C(N)SCCc1cnc[nH]1` [imetit, reference compound] returned a concentration for a half-maximal effect (EC50) of 0.35 nM.
What is called Ki is a measure of affinity in units of concentration, obtained from inhibition or displacement. As a reminder, the IC50 is the midpoint of a concentration-inhibition curve. A low value points to higher potency. Turning to `CC(C)N1CCC(Oc2ccc3c(n2)CCN(c2ccc(C(N)=O)cn2)C3)CC1` [Example 1, 6-[2-(1-Isopropyl-piperidin-4-yloxy)-7,8-dihydro-5H-[1,6]naphthyridin-6-yl]-nicotinamide], the inhibition constant (Ki) in assay [1] (HEK-293 CRE β-lactamase cells, antagonism of 1 nM imetit, 10 μM forskolin, Ki calculated from IC50 by the Cheng-Prussoff equation) was 2.6 nM. On hERG channel, this molecule gave an IC50 of 22200 nM.
